Results published in the NIST ThermoML archive (doi:10.1016/j.jct.2016.01.017).
± gives the expanded uncertainty stated by the source.

Assay: activity coefficient (dimensionless); of the first substance listed, at infinite dilution; xn = mol fraction of the nth substance listed
Conditions: 100 kPa, Liquid, Chromatography, x1 = 0

SMILES	activity coefficient (308.15 K)	activity coefficient (318.15 K)	activity coefficient (328.15 K)	activity coefficient (338.15 K)	activity coefficient (348.15 K)	activity coefficient (358.15 K)	activity coefficient (368.15 K)
CC(C)O [propan-2-ol] + CCCC[n+]1ccc(C#N)cc1.O=S(=O)([N-]S(=O)(=O)C(F)(F)F)C(F)(F)F	2.25 ± 0.19	2.08 ± 0.18	1.95 ± 0.17	1.83 ± 0.16	1.73 ± 0.15	1.63 ± 0.14	
CCCc1ccccc1 [propylbenzene] + CCCC[n+]1ccc(C#N)cc1.O=S(=O)([N-]S(=O)(=O)C(F)(F)F)C(F)(F)F	3.8 ± 0.33	3.94 ± 0.34	4.07 ± 0.35	4.21 ± 0.36	4.33 ± 0.37	4.45 ± 0.38	4.58 ± 0.4
c1ccncc1 [pyridine] + CCCC[n+]1ccc(C#N)cc1.O=S(=O)([N-]S(=O)(=O)C(F)(F)F)C(F)(F)F	0.47 ± 0.044	0.5 ± 0.046	0.53 ± 0.048	0.56 ± 0.05	0.591 ± 0.052	0.62 ± 0.054	0.65 ± 0.056
C=Cc1ccccc1 [styrene] + CCCC[n+]1ccc(C#N)cc1.O=S(=O)([N-]S(=O)(=O)C(F)(F)F)C(F)(F)F	1.28 ± 0.11	1.36 ± 0.11	1.44 ± 0.12	1.52 ± 0.13	1.6 ± 0.14	1.67 ± 0.14	1.75 ± 0.15
C1CCOC1 [tetrahydrofuran] + CCCC[n+]1ccc(C#N)cc1.O=S(=O)([N-]S(=O)(=O)C(F)(F)F)C(F)(F)F	0.622 ± 0.054	0.661 ± 0.057	0.701 ± 0.06	0.742 ± 0.063	0.779 ± 0.065	0.818 ± 0.068	0.858 ± 0.071
c1ccsc1 [thiophene] + CCCC[n+]1ccc(C#N)cc1.O=S(=O)([N-]S(=O)(=O)C(F)(F)F)C(F)(F)F	0.916 ± 0.076	0.96 ± 0.08	1 ± 0.08	1.05 ± 0.09	1.1 ± 0.09	1.14 ± 0.09	1.18 ± 0.1
Cc1ccccc1 [toluene] + CCCC[n+]1ccc(C#N)cc1.O=S(=O)([N-]S(=O)(=O)C(F)(F)F)C(F)(F)F	1.46 ± 0.12	1.54 ± 0.13	1.62 ± 0.14	1.7 ± 0.14	1.78 ± 0.15	1.86 ± 0.16	1.94 ± 0.17
O [water] + CCCC[n+]1ccc(C#N)cc1.O=S(=O)([N-]S(=O)(=O)C(F)(F)F)C(F)(F)F	3.31 ± 0.29	3.01 ± 0.26	2.74 ± 0.24	2.52 ± 0.22	2.33 ± 0.2	2.16 ± 0.19	2 ± 0.17
